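A five-concentration, 48-hour dose response in 96-well plates underlies each endpoint, interpolated linearly between surrounding concentrations. Abbreviation: GI50, concentration required for 50% inhibition of growth. At the TGI there is no net growth.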
How the values were obtained:
Assay in all cases: NCI anticancer screen, dose series, 48 h
[1] = tested on: SNB-19 CNS
[2] = tested on: OVCAR-5 ovarian
[3] = tested on: SK-MEL-2 melanoma
[4] = tested on: SF-268 CNS
[5] = tested on: CCRF-CEM leukemia
[6] = tested on: MALME-3M melanoma
[7] = tested on: NCI-H226 lung
[8] = tested on: SK-OV-3 ovarian
[9] = tested on: MDA-MB-231 breast
[10] = tested on: BT-549 breast

Row | Structure (SMILES) | TGI [1] [µM] | TGI [2] [µM] | TGI [3] [µM] | TGI [4] [µM] | TGI [5] [µM] | TGI [6] [µM] | TGI [7] [µM] | TGI [8] [µM] | TGI [9] [µM] | GI50 [1] [µM] | GI50 [2] [µM] | GI50 [3] [µM] | GI50 [4] [µM] | GI50 [5] [nM] | GI50 [6] [nM] | GI50 [7] [µM] | GI50 [8] [µM] | TGI [10] [µM] | GI50 [9] [nM] | GI50 [10] [µM]
1 | O=C(O)C1=C(C(=O)O)Oc2ccccc2O1 | > 100 | > 100 | > 100 | > 100 | > 100 | > 100 | > 100 | > 100 | – | – | – | – | – | – | – | – | – | – | – | –
2 | CCC1=C(c2ccc(OC)cc2)CC[C@]2(CCNC2=O)[C@@H]1C | > 100 | > 100 | 52.4 | > 100 | 60.8 | 67.4 | > 100 | 97.1 | > 100 | – | – | – | – | – | – | – | – | – | – | –
3 | CC1=C(C(=O)CC(=O)C(=O)Nc2ccccc2C)Sc2ccccc2N1 | > 100 | > 100 | > 100 | > 100 | > 100 | > 100 | > 100 | > 100 | – | – | – | – | – | – | – | – | – | – | – | –
4 | NNC(=O)N/N=C1\CNC(=O)C(=O)C1c1nc2ccccc2s1 (stereo not given) | > 100 | > 100 | > 100 | > 100 | > 100 | > 100 | > 100 | > 100 | – | – | – | – | – | – | – | – | – | – | – | –
5 | O=S(=O)(Cc1ccccc1)SCc1ccccc1 | > 100 | > 100 | > 70.9 | > 100 | > 27.5 | 73.6 | 54.4 | 97.3 | – | – | – | – | – | – | – | – | – | – | – | –
6 | O=CC(O)C(O)C(OC1OC(CO)C(O)C(O)C1O)C(O)CO (stereo not given) (tested in a mixture with another compound) | > 100 | > 100 | > 100 | > 100 | – | > 100 | > 100 | > 100 | 91.5 | – | – | – | – | – | – | – | – | – | – | –
7 | Nc1c(-c2nc3ccccc3s2)[n+]([O-])c2ccccc2[n+]1[O-] | > 100 | > 100 | 74.9 | 82.2 | > 100 | 91.7 | > 100 | 88.9 | – | – | – | – | – | – | – | – | – | – | – | –
8 | O=C1c2ccoc2C(=O)c2oc(=O)ccc21 | 31 | 33.9 | 22 | 27.1 | 15.7 | 7.84 | > 56.7 | > 57.9 | – | – | – | – | – | – | – | – | – | – | – | –
9 | Cc1c(C)c2ccc(OC(C)C(=O)O)cc2oc1=O (stereo not given) | > 100 | – | – | > 100 | > 100 | > 100 | > 100 | > 100 | – | – | – | – | – | – | – | – | – | – | – | –
10 | Cn1cc(NC(=O)c2cc(NC(=O)CCCCCCCC(=O)Nc3cc(C(=O)Nc4cc(C(=O)NCCC(=N)N)n(C)c4)n(C)c3)cn2C)cc1C(=O)NCCC(=N)N | > 100 | > 100 | 27.9 | 45.9 | 86.1 | 20.1 | – | > 100 | – | – | – | – | – | – | – | – | – | – | – | –
11 | Nc1ncnc2sc(Nc3ccccc3)nc12 | > 100 | > 100 | > 100 | > 100 | – | > 100 | > 100 | > 100 | – | – | – | – | – | – | – | – | – | – | – | –
12 | CCOc1ccc(/C=C2/C(=O)N=C(N)N=C2N)cc1OCC | > 100 | > 100 | > 100 | – | > 100 | > 100 | > 100 | > 100 | – | – | – | – | – | – | – | – | – | – | – | –
13 | Nc1nc(-c2ccccc2)cc(-c2cc(Cl)ccc2O)n1 | > 100 | > 100 | – | > 100 | > 100 | > 100 | > 100 | 77.8 | – | – | – | – | – | – | – | – | – | – | – | –
14 | Cc1cc(OC(=O)c2c(C)cc(OC(=O)c3c(C)cc(O)cc3O)cc2O)cc(O)c1C(=O)O | > 100 | > 100 | > 100 | > 100 | > 100 | > 100 | – | > 100 | – | – | – | – | – | – | – | – | – | – | – | –
15 | O=C(Nc1ccc(Cl)c(Cl)c1)C1C(=O)N(c2ccc(Cl)c(Cl)c2)C(=O)/C1=N\O (stereo not given) | > 100 | > 100 | > 100 | > 100 | > 100 | > 100 | > 100 | > 100 | – | – | – | – | – | – | – | – | – | – | – | –
16 | O=C(NN1C(=O)C(Cl)C1c1c(O)ccc2ccccc12)c1ccccc1O (stereo not given) | > 100 | – | > 100 | > 100 | > 100 | > 100 | > 100 | > 100 | – | – | – | – | – | – | – | – | – | – | – | –
17 | CC(C)(C)c1cc(C(OCCl)(C(F)(F)F)C(F)(F)F)c2c(c1)C(C(F)(F)F)(C(F)(F)F)OC21c2ccccc2C(=O)c2ccccc21 | > 100 | > 100 | > 100 | – | – | > 100 | > 100 | – | – | – | – | – | – | – | – | – | – | – | – | –
18 | CC(=O)OC1COC(Oc2c(C)c3c4c(c2O)[C@@H](C)CC[C@@H]4[C@@H](C)C[C@H]3C=C(C)C)C(O)C1O (stereo not given in full) | 73.7 | 37.3 | > 100 | 38.5 | 35.6 | 27.3 | 52.3 | 44 | – | 28.8 | 18.1 | 47.1 | 15.4 | 11100 | 13200 | 21.8 | 20.7 | – | – | –

Row | Structure (SMILES) | TGI [1] [µM] | TGI [2] [µM] | TGI [3] [µM] | TGI [4] [µM] | TGI [5] [µM] | TGI [6] [µM] | TGI [7] [µM] | TGI [8] [µM] | TGI [9] [µM] | GI50 [1] [µM] | GI50 [2] [µM] | GI50 [3] [µM] | GI50 [4] [µM] | GI50 [5] [nM] | GI50 [6] [nM] | GI50 [7] [µM] | GI50 [8] [µM] | TGI [10] [µM] | GI50 [9] [nM] | GI50 [10] [µM]
19 | CN(C)CCNC(=O)c1cccc2cc3ccc4ccccc4c3nc12 | 0.919 | 0.706 | 0.406 | 1.2 | 0.267 | 0.76 | 0.488 | 0.679 | – | – | – | – | – | – | – | – | – | – | – | –
20 | COC(=O)c1cc2ccccc2c2nc3ccccc3c(Cl)c12 | > 100 | – | > 100 | > 100 | > 100 | > 100 | – | – | – | – | – | – | – | – | – | – | – | – | – | –
21 | OC1CSCCSCCCSCCSC1 | > 100 | > 100 | > 100 | > 100 | – | – | > 100 | > 100 | > 100 | – | – | – | – | – | – | – | – | > 100 | – | –
22 | CC1(C)OC2OC(COC(=O)C(c3ccccc3)c3ccccc3)C3OC(C)(C)OC3C2O1 (stereo not given) | > 100 | > 100 | > 100 | > 100 | > 100 | > 100 | > 100 | > 100 | – | – | > 100 | – | – | – | – | > 100 | > 100 | – | – | –
23 | O=C1C2C(C(=O)N1CC[Se][Se]CCN1C(=O)C3C(C1=O)[C@H]1C=C[C@@H]3C1)[C@H]1C=C[C@@H]2C1 (stereo not given in full) | – | 5.58 | 5.78 | 0.76 | 4.02 | 1.08 | 0.495 | 6.57 | 5.48 | – | 1.48 | 1.98 | 0.271 | 566 | 277 | 0.219 | 2.94 | – | 595 | –
24 | O=c1[nH]c(=O)n(C2CC(O)C(O)C(CO)O2)cc1F (stereo not given) | > 100 | > 100 | > 100 | > 100 | > 100 | > 100 | > 100 | > 100 | – | – | – | – | – | – | – | – | – | – | – | –
25 | Nc1ncnc2c1ncn2CCOC(c1ccccc1)P(=O)(O)O (stereo not given) | > 100 | > 100 | > 100 | > 100 | > 100 | > 100 | > 100 | > 100 | – | – | – | – | – | – | – | – | – | – | – | –
26 | CC(C)=CC(=O)CC(=O)C(=O)NCCNC(=O)C(=O)CC(=O)C=C(C)C | > 50 | > 50 | > 50 | > 50 | – | > 50 | > 50 | > 50 | – | – | – | – | – | – | – | – | – | – | – | –
27 | C1CCN2CC3CONC3C2C1 (stereo not given) | > 100 | > 100 | > 100 | > 100 | > 100 | > 100 | > 100 | – | – | – | – | – | – | – | – | – | – | – | – | –
28 | CC1(C)CC(O)CC(C)(C)N1.CC1(C)CC(O)CC(C)(C)N1.CC1(C)CC(O)CC(C)(C)N1.CC1(C)CC(O)CC(C)(C)N1.Cl.[Ti] | – | > 100 | > 100 | > 100 | > 100 | – | > 100 | > 100 | – | – | > 100 | > 100 | > 100 | > 100000 | – | > 100 | > 100 | – | – | –
29 | COc1ccc2nc(-c3ccc(O)cc3)ccc2c1 | > 100 | > 100 | – | – | > 100 | > 100 | > 100 | > 100 | – | – | – | – | – | – | – | – | – | – | – | –
30 | C1=C(c2ccccc2)C(OC2Oc3ccccc3C=C2c2ccccc2)Oc2ccccc21 (stereo not given) | > 100 | > 100 | > 100 | > 100 | > 100 | > 100 | > 100 | > 100 | – | – | – | – | – | – | – | – | – | – | – | –
31 | O=C1c2ccccc2-c2c1c1ccc([N+](=O)[O-])cc1c(=O)n2CCCCl | – | > 100 | > 100 | > 100 | – | – | – | > 100 | 57.7 | – | > 100 | > 100 | 23.5 | – | – | – | 63.4 | > 100 | 11300 | 13.3
32 | C/C(CC(=O)Nc1cccc(Cl)c1C)=N\N=C(N)N | > 100 | > 100 | > 100 | > 100 | > 100 | > 100 | > 100 | > 100 | – | – | – | – | – | – | – | – | – | – | – | –
33 | C=C(C)[C@@H]1CC[C@]2(C(=O)n3ccnc3)CC[C@]3(C)[C@H](CC[C@@H]4[C@@]5(C)CCCNC(C)(C)[C@@H]5CC[C@]43C)[C@@H]12 | 6.12 | 6.4 | – | 9.21 | 4.48 | 2.86 | 4.8 | 16.2 | 3.3 | 2.54 | 2.25 | – | 2.77 | 1880 | 1310 | 2.23 | 3.72 | – | 1780 | –
34 | O=c1c2cccc3cccc(c4n1CCCN=4)c32 | – | > 100 | > 100 | > 100 | > 100 | > 100 | > 100 | > 100 | – | – | – | – | – | – | – | – | – | – | – | –
35 | Nc1c(C(=O)Nc2ccccc2O)[n+]([O-])c2ccccc2[n+]1[O-] | > 100 | > 100 | > 100 | – | – | > 100 | > 100 | > 100 | – | – | – | – | – | – | – | – | – | – | – | –

— PubChem BioAssay (NCI)
